Measurements reported in article PMC12392461, “Beyond Estrogenicity: A Comparative Assessment of Bisphenol A and Its Alternatives in In Vitro Assays Questions Safety of Replacements” (Environmental Science & Technology, 2025).
Where two headings read alike, the source gives them in different places.

What was measured:
[1] = molecular target: T1, Estrogen Receptor ERα (Homo sapiens, UniProt P03372); experiment: cell-based; settings: for EC10, ERα (M): 10% of maximum effect of E2; for REPBPA,ERα (relative effect potency in relation to BPA): EC10,BPA/EC10,BPx; for EC10, linear transformed / EC10, linear / EC10: in M; for SR-ScoreERα: SR-Score, sigma k=1, x=5; for Specificity ratio (SRbaseline) SRERα: against baseline cytotoxicity; for log(1/EC10) ERα: input of the ToxPi score, values up to 1.00; for Relative effect potency REPERα: relative to BPA; for Efficacy % / EC10 / REPBPA: This Study; for EC10: ERα; for REPBPA: relative estrogenic potency vs BPA
T1 sequence (P03372 311-547 limits assumed): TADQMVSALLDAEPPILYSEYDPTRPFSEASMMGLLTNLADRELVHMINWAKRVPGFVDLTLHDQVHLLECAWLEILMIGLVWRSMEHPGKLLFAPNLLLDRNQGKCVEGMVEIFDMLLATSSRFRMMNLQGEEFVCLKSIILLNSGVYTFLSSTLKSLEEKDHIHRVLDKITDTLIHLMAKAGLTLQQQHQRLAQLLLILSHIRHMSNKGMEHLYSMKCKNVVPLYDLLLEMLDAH
Method in brief: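 ERα-UAS-bla GripTite and PPARγ-UAS-bla reporter cells were seeded in assay medium with 2% charcoal-stripped FBS and held 24 h at 37 °C before dosing. Viability came from IncuCyte confluency before and after exposure. EC10 used only concentrations below IC10; Emax% is the log-logistic curve maximum relative to the reference chemical.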

[2] = Octanol-water partition constant (log Kow) measurement, Sirius T3 potentiometric log P; format: physicochemical; settings: experimental, this study
Protocol: Physicochemical properties provide input parameters for the baseline toxicity model. Acidity constants (pK a) and octanol–water partition constants of the neutral species (K ow) were measured with a Sirius T instrument from Pion Inc. (Sussex, UK) (Text S1.2 and Table S1). A detailed description of the pK a and K ow measurements can be found in literature. , […]
S1.2: pKa and log Kow measurements […]
titrator (Pion Inc., Sussex, U.K.). […]
UV absorbance. For log Kow measurement, approximately 1 mg of test chemical was added to a sample vial and the measurement was done automatically via the potentiometric log P protocol. Briefly, each compound is titrated thrice in an immiscible biphasic system of octanol and phosphate buffer solution and pH is continuously recorded. The shift in p Ka -values was used to estimate the log Kow values.2, 3 Data processing was performed with Sirius T3 Refine software (version 2.0.0.0.), and the final p Ka and log Kow values were calculated as the average of three titrations. To ensure reproducibility, measurements were conducted on at least two

[3] = tested on: HEK293H, HEK293T, H4IIe, MCF7 and SH-SY5Y cells; settings: for cytotoxicity,median REPBPA,IC10: median IC10 relative to BPA; for IC10,Median (M): median cytotoxicity of all cell lines; for IC10, median: median cytotoxicity over all cell lines
Protocol: Cell culture conditions and bioassay protocols including response detection are provided in Text S2.1–2.4 and Table S3. − Cell viability was determined from cell confluency using an IncuCyte S3 Live-Cell Analysis System (Sartorius AG, Essen, Germany) before and after exposure, except for SH-SY5Y cells (live–dead staining with Nuclear Green LcS1 and propidium iodide, Abcam, UK). For metabolic activation experiments, cell viability was assessed using the ToxBLAzer DualScreen Kit (Thermo Fisher Scientific) to capture the remaining toxicity in ERα-UAS-bla GripTite after treatment with the aCYP catalyst (details in Text S2.4).
For ARE, the concentration that triggered an induction ratio of 1.5 (ECIR1.5) was used as the benchmark value, as detailed in Text S2.5. IC10 values also served as a threshold for data analysis in all assays; only concentrations below IC10 were considered when deriving EC10 or ECIR1.5.
TR indicates whether the cytotoxicity is triggered by specific toxicity mechanisms (TR ≥ 10) or not (0.1< TR< 10). 3 TR=IC10,baseline/IC10 We measured the cytotoxicity of BPA and its alternatives in HEK293H (PPARγ), HEK293T (ERα), H4IIe (AhR CALUX), MCF7 (ARE/MMP), and differentiated SH-SY5Y cells (Table S6). […]
medium, supplemented with 2% B-27 Supplement and 2 mM GlutaMAX Supplement. SH - SY5Y cells were differentiated with 10 µM all-trans retinoic acid prior to the assay.
S2.2: Cell Seeding and Incubation. For all bioassays, cell suspensions in the respective assay medium were dispensed into each well of 384-well plates using a MultiFlo Dispenser (Biotek, (now Agilent), Winooski, VT, U.S.). After seeding, the plates were incubated at 37° C and 5% CO₂ for […]. The final cell densities and plate types were as follows: Black poly-D-lysine […]
6500 cells/well, ERα: 5000 cells/well. White 384-well plates with a clear bottom (Product No.
NYC, U.S.) for AhR: 3250 cells/well. Black Collagen I coated plates were used (Product No.
S2.3: Chemical Dosing and Assay Analysis Procedures. The dosing procedure and high-throughput assay workflow have been described in detail before. 9 The dosing concentrations […]
Stock solutions were then either added directly to the respective cell culture medium or evaporated under nitrogen, followed by replenishment with fresh medium. The final solvent content in each well was kept below 1% for methanol, 0% for acetonitrile.
Dosing plates were prepared as 11 -step serial dilutions using a Hamilton Microlab Star robotic system (Hamilton, Bonaduz, Switzerland), and chemicals were dosed in duplicates by transferring 10 μL twice from the dosing plates to the cell plates . After quantifying cell confluency as described in S2. 4., the exposed cells were incubated at 37° C and 5% CO₂ for an additional 24 h. All chemicals were tested in all assays with at least three independent […]
S2.4: Cell Viability Measurement s and bioanalytical protocols . The confluency as a measure of cell viability was determined with an IncuCyte S3 Live -Cell Analysis System (Sartorius AG, Essen, Germany). With this method the confluency of cells in a microscopy image are normalized to control wells without cells and compared before and after 24 hours of exposure.
This method has been described previously 13. Cell viability of SH-SY5Y cells was measured […]
propidium iodide (PI, Abcam, Cambridge, U.K.).14 Nuclear Green LCS1 is a membrane-permeable dye that stains the nuclei of all cells, whereas PI only enters cells with compromised membrane integrity (non-viable cells). After staining, live cells show green nuclei without red fluorescence, while dead cells display both green and red nuclear fluorescence due to PI […]
intercalation. Cell viability was calculated as the proportion of green-only nuclei relative to the […]
For experiments with the preceding aCYP activation, ERα cell viability was additionally calculated from the readout of the ToxBLAzer reagent. The ToxBLAzer assay was conducted following the manufacturer's instructions (Thermo Fisher, Waltham, MA, U.S.).13 Fluorescence

[4] = against experimental cytotoxicity
[5] = read-out: Emax%ERα, maximum efficacy relative to E2
[6] = Bioassay ERα, dosing range high
[7] = Bioassay ERα, dosing range high, linear model fit
[8] = Bioassay ERα, dosing range high, log-logistic model fit
[9] = Bioassay ERα, dosing range low, linear model fit
[10] = Bioassay ERα, dosing range low, log-logistic model fit

SMILES | EC10, ERα (M) [1] | REPBPA,ERα (relative effect potency in relation to BPA) [1] | SR-ScoreERα [1] | Specificity ratio (SRbaseline) SRERα [1] | EC10, ERα ([1]; effect) | log(1/EC10) ERα [1] | Relative effect potency REPERα [1] | log Kow used [2] | Efficacy % [1] | EC10 [1] | REPBPA [1] | cytotoxicity,median REPBPA,IC10 [3] | IC10,Median (M) [3] | IC10, median [3] | also measured
O=S(=O)(c1ccc(O)cc1)c1ccccc1O [2,4-BPS, 2,4'-Dihydroxydiphenyl sulfone] | 1.98 × 10^–5 M | 0.019 | 1.00 | 27.68 | 19.8 µM | 0.60 | 0.0187 | 1.90 | – | – | – | – | – | – | times less potent than BPS (ERα) [1]: 10; EC10, linear transformed ([1]; ERα bioassay, dosing range all): 3.59E-05; EC10, linear ([1]; ERα bioassay, dosing range all, linear model): 5.15E-05; logEC10 ([1]; ERα bioassay, dosing range all, log-logistic model): -4.70; Specificity ratio (SRcytotoxicity) SRERα [1, 4]: 21.81; ERα activation ([1]; at noncytotoxic concentrations): did not activate ERα at noncytotoxic concentrations; Emax [1, 5]: 19%
CC(C)(c1ccc(O)cc1)c1ccc(O)cc1 [BPA, 4,4'-(Propane-2,2-diyl)diphenol, reference compound] | 3.70 × 10^–7 M | – | 1.00 | 31.86 | 0.37 µM | 0.82 | 1.00 | 4.25 | 37.53% | 3.70E-07 | 1.00E+00 | – | – | – | EC10, ERα [1]: 0.37 µM; EC10, linear transformed [1, 6]: 1.46E-07; EC10, linear [1, 7]: 1.81E-07; logEC10 [1, 8]: -7.06; EC10, linear transformed ([1]; Bioassay ERα, dosing range low): 3.70E-07; EC10, linear [1, 9]: 2.69E-07; logEC10 [1, 10]: -6.43; SRcytotoxicity (ERα) ([1]; human, 24 h): 115; Specificity ratio (SRcytotoxicity) SRERα ([1]; human, 24 h): 115.28; times less potent than the reference estradiol (E2) ([1]; ratio of EC10): 18700; Emax ([1]; read-out: Emax%ERα): 38%
Oc1ccc(C(c2ccc(O)cc2)(C(F)(F)F)C(F)(F)F)cc1 [BPAF, 4,4'-(1,1,1,3,3,3-Hexafluoropropane-2,2-diyl)diphenol] | – | – | – | – | – | – | – | 4.72 | – | – | – | 3.07 | 2.28 × 10^–5 M | 22.8 µM | –
CC(c1ccccc1)(c1ccc(O)cc1)c1ccc(O)cc1 [BPAP, 4,4'-(1-Phenylethylidene)bisphenol] | – | – | – | – | – | – | – | 5.06 | – | – | – | 2.12 | 3.31 × 10^–5 M | 33.1 µM | –
CCC(C)(c1ccc(O)cc1)c1ccc(O)cc1 [BPB, 4,4'-(Butane-2,2-diyl)diphenol] | 1.35 × 10^–7 M | 3 | 1.00 | 66.42 | 0.135 µM | 0.88 | 2.74 | 3.72 | 23.67% | 1.35E-07 | 2.74E+00 | 1.93 | 3.62 × 10^–5 M | 36.2 µM | EC10, linear transformed [1, 6]: 5.57E-08; EC10, linear [1, 7]: 8.29E-08; logEC10 [1, 8]: -7.27; EC10, linear transformed ([1]; Bioassay ERα, dosing range low): 1.07E-07; EC10, linear [1, 9]: 1.35E-07; logEC10 [1, 10]: -6.97; Specificity ratio (SRcytotoxicity) SRERα [1, 4]: 154.61; Emax [1, 5]: 24%
CC(c1ccc(O)cc1)c1ccc(O)cc1 [BPE, 4,4′-Ethylidenbisphenol] | – | – | – | – | – | – | – | 4.05 | – | – | – | 0.88 | 7.91 × 10^–5 M | 79.1 µM | –
Oc1ccc(C2(c3ccc(O)cc3)CCCCC2)cc1 [BPZ, 1,1'-Bis(4-hydroxyphenyl)cyclohexane] | – | – | – | – | – | – | – | 4.64 | – | – | – | 1.33 | 5.28 × 10^–5 M | 52.8 µM | –
CC(C)(c1cc(Br)c(O)c(Br)c1)c1cc(Br)c(O)c(Br)c1 [TBBPA, 3,3',5,5'-Tetrabromobisphenol A] | – | – | – | – | – | – | – | 5.91 | – | – | – | – | – | – | –
CC1(C)[C@H](O)C(C)(C)[C@H]1O [t-TMCD, trans-2,2,4,4-Tetramethyl-1,3-cyclobutanediol] | 3.03 × 10^–3 M | 1.2 × 10^–4 | 0.00922 | 0.32 | 3030 µM | 0.32 | 0.000122 | – | <20% | 3.03E-03 | 1.22E-04 | 0.00783 | 8.94 × 10^–3 M | 8940 µM | –
